The source of these data is ChEMBL document CHEMBL1208723, “Synthesis and activity of polyacetylene substituted 2-hydroxy acids, esters, and amides against microbes of clinical importance” (Bioorg Med Chem Lett, 2010).

Some results are limits rather than exact numbers.

For test [1], the system named is Pseudomonas aeruginosa. The test is described as follows: Antibacterial activity against Pseudomonas aeruginosa ATCC 27853. Also: test concentration or dose not given here. The format is functional.
Test [2] has as its system Candida parapsilosis. The test is described as follows: Antifungal activity against Candida parapsilosis. The format is functional, organism-based.
The subject of test [3] is Staphylococcus aureus. The test is described as follows: Antibacterial activity against Staphylococcus aureus ATCC 25923. Also: test concentration or dose not given here. The class given is functional.
Test [4] concerns Staphylococcus aureus. The test is described as follows: Antibacterial activity against methicillin-resistant Staphylococcus aureus. Also: test concentration or dose not given here. The format is functional.
The subject of test [5] is Nakaseomyces glabratus. The test is described as follows: Antifungal activity against Candida glabrata. The class given is functional, organism-based.
In test [6] the test system is Candida albicans. The test can be described thus: Antifungal activity against Candida albicans. The class given is functional, organism-based.
Test [7] deals with Pichia kudriavzevii. The test can be described thus: Antifungal activity against Candida krusei. The format is functional, organism-based.
Test [8] has as its system Streptococcus pyogenes. The test is described as follows: Antibacterial activity against Streptococcus pyogenes ATCC 19615. Also: test concentration or dose not given here. The format is functional.
Test [9] deals with Candida tropicalis. The test is described as follows: Antifungal activity against Candida tropicalis. The format is functional, organism-based.
The test system of test [10] is Escherichia coli. The test is described as follows: Antibacterial activity against Escherichia coli ATCC 25922. Also: test concentration or dose not given here. The class given is functional.

Regarding `CCCC#CC#CC#CCCCCC[C@@H]1O[C@](C)(OC)[C@@](C)(OC)OC1=O`, the “inhibition (INH)” value in test [1] is over 75%; in [3] it was 50%; in test [4], 25%; in test [8], over 75%; in test [10], over 75%. The IC50 result in test [2], in [5], in test [6], in [7] and in [9] was “Not Active” in each case.
